According to patent US20230159453A1 (COCRYSTAL PHARMA, INC., priority 2020, published 2023):
pIC50: −log10 of the molar value.

biological target: SARS2 protease (Severe acute respiratory syndrome coronavirus 2, UniProt P0DTD1); test: SARS-CoV-2 protease inhibition assay (SARS2 FRET protease assay); assay type: biochemical; details: SARS-CoV-2 protease 25 nM, FRET, peptide substrate 1.3 μM, 30 minutes at 30° C., compounds 20 μM to 1.0 nM; read-out: IC50

SMILES | pIC50
CCOP(=O)(OCC)C(O)C(CC1CC2(CCN(C(C)=O)CC2)NC1=O)NC(=O)C(CC(C)C)NC(=O)OCc1cccc(Cl)c1 (stereo in doubt) [Compound C69, 3-Chlorobenzyl ((2R)-1-((3-(8-acetyl-2-oxo-1,8-diazaspiro[4.5]decan-3-yl)-1-(diethoxyphosphoryl)-1-hydroxypropan-2-yl)amino)-4-methyl-1-oxopentan-2-yl)carbamate] | 4.57
CCOP(=O)(OCC)C(O)C(CC1CC2(CCCCC2)NC1=O)NC(=O)C(CC(C)C)NC(=O)OCc1cccc(Cl)c1 (stereo in doubt) [Compound C85, 3-Chlorobenzyl ((2R)-1-((1-(diethoxyphosphoryl)-1-hydroxy-3-(2-oxo-1-azaspiro[4.5]decan-3-yl)propan-2-yl)amino)-4-methyl-1-oxopentan-2-yl)carbamate] | 4.75
CC(C)C[C@H](NC(=O)OC1CCCC1Cc1ccccc1)C(=O)NC(C[C@@H]1CCNC1=O)C(=O)C(=O)NC1CC1 (stereo in doubt) [Compound C89, 2-Benzylcyclopentyl ((S)-1-(((R)-4-(cyclopropylamino)-3,4-dioxo-1-((S)-2-oxopyrrolidin-3-yl)butan-2-yl)amino)-4-methyl-1-oxopentan-2-yl)carbamate] | 6.52
CCCC1CCC(OC(=O)NC(CC(C)C)C(=O)NC(CC2CC3(CCN(C(C)=O)CC3)NC2=O)C(O)P(=O)(OCC)OCC)CC1 (stereo in doubt) [Compound C91, 4-Propylcyclohexyl ((2R)-1-((3-(8-acetyl-2-oxo-1,8-diazaspiro[4.5]decan-3-yl)-1-(diethoxyphosphoryl)-1-hydroxypropan-2-yl)amino)-4-methyl-1-oxopentan-2-yl)carbamate] | < 4.70
CC(=O)N1CCC2(CC1)CC(CC(NC(=O)C(Cc1ccccc1)NC(=O)c1cnc3ccccc3n1)C(=O)C(N)=O)C(=O)N2 (stereo in doubt) [Compound C130, N-((2S)-1-((1-(8-acetyl-2-oxo-1,8-diazaspiro[4.5]decan-3-yl)-4-amino-3,4-dioxobutan-2-yl)amino)-1-oxo-3-phenylpropan-2-yl)quinoxaline-2-carboxamide] | < 4.70
CCOP(=O)(OCC)C(O)[C@H](CCC(=O)N1CCN(C(=O)OC(C)(C)C)C(c2ccccc2)C1)NC(=O)[C@H](CC1CCCCC1)NC(=O)OCc1cccc(Cl)c1 (stereo partly drawn) [Compound C1, tert-butyl 4-((4S)-4-((S)-2-((((3-chlorobenzyl)oxy)carbonyl)amino)-3-cyclohexylpropanamido)-5-(diethoxyphosphoryl)-5-hydroxypentanoyl)-2-phenylpiperazine-1-carboxylate] | < 3.70
CCOP(=O)(OCC)C(O)[C@H](CCC(=O)N(C)C)NC(=O)C(CC(C)(C)C)NC(=O)OCc1cccc(Cl)c1 (stereo partly drawn) [Compound C2, 3-Chlorobenzyl (1-(((2S)-1-(diethoxyphosphoryl)-5-(dimethylamino)-1-hydroxy-5-oxopentan-2-yl)amino)-4,4-dimethyl-1-oxopentan-2-yl)carbamate] | 4.15
CCOP(=O)(OCC)C(O)[C@H](CCC(=O)N1CCNCc2ccccc21)NC(=O)[C@H](CC1CCCCC1)NC(=O)OCc1cccc(Cl)c1 (stereo partly drawn) [Compound C3] | < 3.70
CC1C[C@H](NC(=O)[C@H](CC2CCCCC2)NC(=O)OCc2cccc(Cl)c2)C(O)N(CCc2ccccc2)C1=O (stereo partly drawn) [Compound C4] | < 3.70
CCOP(=O)(OCC)C(O)[C@H](CCC(=O)N(C)C1(Cc2ccccc2)CC1)NC(=O)[C@H](CC1CCCCC1)NC(=O)OCc1cccc(Cl)c1 (stereo partly drawn) [Compound C5, 3-Chlorobenzyl ((2S)-1-(((2S)-5-((1-benzylcyclopropyl)(methyl)amino)-1-(diethoxyphosphoryl)-1-hydroxy-5-oxopentan-2-yl)amino)-3-cyclohexyl-1-oxopropan-2-yl)carbamate] | < 3.70
CCCCCOC(=O)N[C@@H](CC1CCCCC1)C(=O)N[C@@H](CCC(=O)N1CCOc2ccccc2C1)C(O)P(=O)(OCC)OCC (stereo partly drawn) [Compound C6, Pentyl ((2S)-3-cyclohexyl-1-(((2S)-1-(diethoxyphosphoryl)-5-(2,3-dihydrobenzo[f][1,4]oxazepin-4(5H)-yl)-1-hydroxy-5-oxopentan-2-yl)amino)-1-oxopropan-2-yl)carbamate] | < 3.70
CCCCCCOC(=O)N[C@@H](CC1CCCCC1)C(=O)N[C@@H](CCC(=O)N1CCOc2ccccc2C1)C(O)P(=O)(OCC)OCC (stereo partly drawn) [Compound C7, Hexyl ((2S)-3-cyclohexyl-1-(((2S)-1-(diethoxyphosphoryl)-5-(2,3-dihydrobenzo[f][1,4]oxazepin-4(5H)-yl)-1-hydroxy-5-oxopentan-2-yl)amino)-1-oxopropan-2-yl)carbamate] | < 3.70
CCOP(=O)(OCC)C(O)[C@H](CC1CCN(CCc2ccccc2)C1=O)NC(=O)[C@H](CC1CCCCC1)NC(=O)OCc1cccc(Cl)c1 (stereo partly drawn) [Compound C8, 3-Chlorobenzyl ((2S)-3-cyclohexyl-1-((1-(diethoxyphosphaneyl)-1-hydroxy-3-(2-oxo-1-phenethylpyrrolidin-3-yl)propan-2-yl)amino)-1-oxopropan-2-yl) carbamate] | < 3.70
CCOP(=O)(OCC)C(O)[C@H](CCC(=O)N1CCOc2ccc(Cl)cc2C1)NC(=O)[C@H](CC1CCCCC1)NC(=O)OCc1cccc(Cl)c1 (stereo partly drawn) [Compound C9, 3-Chlorobenzyl ((2S)-1-(((2S)-5-(7-chloro-2,3-dihydrobenzo[f][1,4]oxazepin-4(5H)-yl)-1-(diethoxyphosphoryl)-1-hydroxy-5-oxopentan-2-yl)amino)-3-cyclohexyl-1-oxopropan-2-yl)carbamate] | < 3.70
CN(CCc1ccccc1)C(=O)CC[C@@H](C=O)NC(=O)[C@H](CC1CCCCC1)NC(=O)OC1(c2cccc(Cl)c2)CC1 [Compound C10, 1-(3-Chlorophenyl) cyclopropyl ((S)-3-cyclohexyl-1-(((S)-5-(methyl (phenethyl)amino)-1,5-dioxopentan-2-yl)amino)-1-oxopropan-2-yl) carbamate] | < 3.70
CCOP(=O)(OCC)C(O)[C@H](CC(C)C(=O)N1CCOc2ccccc2C1)NC(=O)[C@H](CC1CCCCC1)NC(=O)OCc1cccc(Cl)c1 (stereo partly drawn) [Compound C11, 3-chlorobenzyl ((2S)-3-cyclohexyl-1-(((2S)-1-(diethoxyphosphoryl)-5-(2,3-dihydrobenzo[f][1,4]oxazepin-4(5H)-yl)-1-hydroxy-4-methyl-5-oxopentan-2-yl)amino)-1-oxopropan-2-yl)carbamate] | < 3.70
CCOP(=O)(OCC)C(O)[C@H](CCC(=O)N1CCNC(c2ccccc2)C1)NC(=O)[C@H](CC1CCCCC1)NC(=O)OCc1cccc(Cl)c1 (stereo partly drawn) [Compound C12, 3-Chlorobenzyl ((2S)-3-cyclohexyl-1-(((2S)-1-(diethoxyphosphoryl)-1-hydroxy-5-oxo-5-(3-phenylpiperazin-1-yl)pentan-2-yl)amino)-1-oxopropan-2-yl)carbamate] | < 3.70
CCOP(=O)(OCC)C(O)[C@H](CCC(=O)N1CCOc2ccccc2C1)NC(=O)[C@H](CC1CCCCC1)NC(=O)OC1CCN(C(=O)OC(C)(C)C)CC1 (stereo partly drawn) [Compound C13, Tert-butyl 4-((((2S)-3-cyclohexyl-1-(((2S)-1-(diethoxyphosphoryl)-5-(2,3-dihydrobenzo[f][1,4]oxazepin-4(5H)-yl)-1-hydroxy-5-oxopentan-2-yl)amino)-1-oxopropan-2-yl)carbamoyl)oxy)piperidine-1-carboxylate] | < 3.70
